Laboratory results as given in patent US20200246308A1, “SYNERGISTIC COMBINATIONS OF UROLITHINS A AND B FOR IMPROVING COGNITIVE CAPACITY OR COGNITIVE FUNCTION” (Natreon, Inc., priority 2018, published 2020).
Entries after “also recorded” stand apart in the source; their conditions may differ.

How the values were obtained:
[1] = test system: scopolamine induced dementia in rats; assay: Y-maze test, scopolamine induced dementia in rats (Study 2); type: in vivo, Charles Foster male albino rats; settings: 50 mg dose orally once daily; for Coping behavior to novel environment (% time in novel arm), trial-2 / Curiosity behavior (total number of entries), trial-1 and trial-2: scopolamine treated rats; for % known and novel arm entries (spatial recognition memory): vs scopolamine treated rats
Method: 2.2. Animal subjects. Inbred Charles Foster male albino rats (130-180 g) were obtained from the Central Animal House, Institute of Medical Sciences (IMS), Banaras Hindu University (BHU), Varanasi, Uttar Pradesh, India. These were certified to be pathogen free and were randomly distributed into different experimental groups. The rats were kept in the departmental animal house at an ambient temperature of 25±1° C. and 45-55% RH, with a 12-h light/dark cycle (lights on 7:00-19:00 h). The animals had free access to standard pellet chow and tap water ad libitum. Experiments were conducted between 9:00 and 14:00 h. The behavioral testing was done during the light phase. Animals were housed in groups and acclimatized for at least one week before using them for experiments. Animals were transported in cage covered by dark cloth to the experimental room. The experimental procedures were in compliance with National Institutes of Health Guide for Care and Use of Laboratory Animals.
The rats were pretreated orally for seven days through an orogastric tube with experimental drugs (10, 25 and 50 mg/kg once daily) suspended in 0.3% carboxymethyl cellulose (CMC). The treatment was continued until the end of the experiment procedures (Singh, G. K., Garabadu, D., Muruganadam, A. V., Joshi, V. K., Krishnamurthy, S., “Antidepressant activity of Asparagus racemosus in animal models of depression,” Pharmacol. Biochem. Behav. (2009) 91(3):283-90). Scopolamine was dissolved in water for injection and administered on day 7 after one hour of drug treatment administration. Donepezil (5 mg/kg; i.p.)
was used as standard drug. On day 8 the behavioral experiment was performed. The animals were sacrificed and hippocampus was micro-dissected using the coordinates of the rat brain atlas. All control group animals were treated with the 0.3 ml of vehicle (0.3% CMC suspension) equal to the volume of experimental drugs (Ohj a, R., et al., “Asparagus recemosus enhances memory and protects against amnesia in rodent models,” Brain Cogn. (2010) October; 74(1): 1-9).
Spatial recognition memory, general exploratory behavior, and anxiety-like behavior were assessed by the Y-maze test. Y-maze consists of three similar arms of dimension 50 cm long, 16 cm wide and 32 cm high. In the first trial, the novel arm was blocked and the animal was allowed to move for 15 min in other two arms. In the second trial, the novel arm was opened and the animal was allowed to move for 5 min in all three arms after 4 h of the first trial. The total number of entries in all arms (for 5 min of trial-1 and trial-2) is indicative of general exploration attitude (curiosity). The % entries in known and novel arms for the 5 min period of trial 2 were considered as a measure of spatial recognition memory. Coping strategy to the novel environment was estimated by the percentage of the ratio of time spent in the novel arm to time spent in all arms and in the center of the apparatus during trial 2. The decrease in the coping behavior to the novel environment was considered as an increase in anxiety-like behavior (Krishnamurthy, S., et al., “Risperidone ameliorates post-traumatic stress disorder-like symptoms in modified stress re-stress model,” Neuropharmacology (2013) 75:62-77).

[2] = target: T1, AchE from Electrophorus electricus (electric eel) (Electrophorus electricus, UniProt O42275); assay: In-vitro AChE inhibition assay, Ellman method; type: biochemical
T1 construct: purchased Sigma Aldrich
From the text: AchE from Electrophorus electricus (electric eel) CAS: 9000-81-1 was procured from Sigma Aldrich (St. Louis, Mo., USA). 5,5′-dithiobis (2-nitrobenzoic acid) (DTNB-Ellman's reagent) and acetylcholine iodide, (AChI) were procured from local suppliers (HiMedia, Pvt. Ltd., New Delhi, India). All other chemicals and reagents were available commercially from local suppliers (Merck Pvt. Ltd., New Delhi and HiMedia Laboratories Pvt Ltd., New Delhi, India) and were of analytical grade.
The procedure described by Ellman et al. was used after some modification for AChE inhibition assay. Acetylthiocholine iodide (ATCI), 5,5′-dithiobis (2-nitrobenzoic acid) (DTNB-Ellman's reagent) were purchased from Himedia. Donepezil was used as positive control. Tris-HCl buffer (pH 8) was used to perform the in-vitro assay. […] 50 μL of AChE (0.22 U mL^−1) and 10 μL of test or standard compounds were incubated in 96 well plate for 30 min. at room temperature (See, Table 3).
(§1) Further, substrate i.e. ATCI (15 mM, 30 μL) was added and it was incubated for additional 30 min. Finally 160 μL (1.5 mM) of DTNB was added and the absorbance was recorded at 415 nm using Epoch microplate reader (BioTek). The IC50 value was calculated using absorbance obtained from the test and standard compounds. The assay was performed in triplicate and in three independent runs.
Percentage inhibition=(Control−Test)/Control×100 Equation (1)
50 μL of AChE (0.22 U mL^−1) and 10 μL of test or standard compounds were incubated in 96 well plate for 30 min. at room temperature.
as §1, with “(see Equation 1).” for “and in three independent runs.”

[3] = target: T2, acetylcholinesterase activity in HIP homogenate (Rattus norvegicus, UniProt P37136); assay: Acetylcholinesterase activity in hippocampal tissue, Amplex Red kit (Example 9C); type: in vivo, Male Wistar rats; settings: p.o. 7 days: B 50, A 50, Donepezil 3, B:A 10:50 and 50:50 mg/kg, Shilajit 25 mg/kg b.i.d
T2 construct: The acetylcholinesterase activity in brain tissues was measured using Amplex red assay kit; from tissue; host or cells: rat hippocampus (brain tissue homogenate supernatant)
T2 sequence (P37136 32-614): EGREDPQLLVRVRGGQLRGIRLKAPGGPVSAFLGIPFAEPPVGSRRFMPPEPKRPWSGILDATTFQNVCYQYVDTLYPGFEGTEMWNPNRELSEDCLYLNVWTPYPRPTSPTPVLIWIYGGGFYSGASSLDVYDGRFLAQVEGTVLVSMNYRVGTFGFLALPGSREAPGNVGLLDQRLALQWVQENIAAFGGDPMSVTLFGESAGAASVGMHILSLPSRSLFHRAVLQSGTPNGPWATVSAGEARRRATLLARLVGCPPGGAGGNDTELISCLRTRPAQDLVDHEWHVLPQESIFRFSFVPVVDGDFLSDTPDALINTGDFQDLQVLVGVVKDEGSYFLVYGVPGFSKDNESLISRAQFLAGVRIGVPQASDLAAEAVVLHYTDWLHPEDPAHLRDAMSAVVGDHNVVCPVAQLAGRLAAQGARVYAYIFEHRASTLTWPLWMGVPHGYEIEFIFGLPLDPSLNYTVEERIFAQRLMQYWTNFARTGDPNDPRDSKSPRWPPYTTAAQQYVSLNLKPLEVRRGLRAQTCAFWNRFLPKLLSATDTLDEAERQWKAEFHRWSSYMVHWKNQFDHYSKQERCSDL
Method: Drug solution was freshly prepared in 0.3% CMC and administered by oral gavage once a day, for a period of 7 days. Briefly, the whole experiment was conducted for 8 days. Scopolamine (1 mg/kg), a muscarinic receptor antagonist, was dissolved in normal saline (0.9% NaCl) and administered intraperitoneally 1 h after drugs administration on seventh day.
Sample preparation: The animals were killed by decapitation and the brain tissues were dissected out in ice-cold conditions and stored at −80° C. until use. Tissue was homogenized in 1.0 ml of 0.1M perchloric acid with a Potter-Elvehjem homogenizer. The homogenate was kept in the polypropylene tubes for 15 min after which 40 μl of 4M potassium acetate was added to adjust the pH to 4.0 followed by centrifugation for 15 min at 4000×g. Supernatant was used to estimate acetylcholine and AChE activities.
Spectrofluorometric assay of acetylcholinesterase activity: The acetylcholinesterase activity in brain tissues was measured using Amplex red assay kit (Molecular Probes, Inc., USA). An acetylcholinesterase standard curve was used in each experiment. Briefly, Begin the reactions by adding 0.1 ml of control (10 μM H2O2) and tissue homogenate were taken in two separate polypropylene tubes and then 0.1 ml working solution of 400 μM Amplex Red reagent containing 2 U/mL HRP, 0.2 U/mL choline oxidase and 100 μM acetylcholine were added to each tube. After incubation for 45 min, the fluorescence was recorded with the help of spectrofluorometer at 530 nm excitation and 590 nm emission wavelengths.
Statistical analyses: The results were expressed as means±Standard Error mean (SEM). The intergroup variation was measured by one-way ANOVA followed by Student-Newman-Keuls test. […] Statistical analysis was done by using Graph Pad prism version 5 (San Diego, Calif.). A level of p<0.05 was accepted as statistically significant.

[4] = Table 2, B:A ratios from mg/ml solutions
[5] = Table 5, Shilajit:B:A combinations from mg/ml solutions

T1 sequence (O42275 24-633): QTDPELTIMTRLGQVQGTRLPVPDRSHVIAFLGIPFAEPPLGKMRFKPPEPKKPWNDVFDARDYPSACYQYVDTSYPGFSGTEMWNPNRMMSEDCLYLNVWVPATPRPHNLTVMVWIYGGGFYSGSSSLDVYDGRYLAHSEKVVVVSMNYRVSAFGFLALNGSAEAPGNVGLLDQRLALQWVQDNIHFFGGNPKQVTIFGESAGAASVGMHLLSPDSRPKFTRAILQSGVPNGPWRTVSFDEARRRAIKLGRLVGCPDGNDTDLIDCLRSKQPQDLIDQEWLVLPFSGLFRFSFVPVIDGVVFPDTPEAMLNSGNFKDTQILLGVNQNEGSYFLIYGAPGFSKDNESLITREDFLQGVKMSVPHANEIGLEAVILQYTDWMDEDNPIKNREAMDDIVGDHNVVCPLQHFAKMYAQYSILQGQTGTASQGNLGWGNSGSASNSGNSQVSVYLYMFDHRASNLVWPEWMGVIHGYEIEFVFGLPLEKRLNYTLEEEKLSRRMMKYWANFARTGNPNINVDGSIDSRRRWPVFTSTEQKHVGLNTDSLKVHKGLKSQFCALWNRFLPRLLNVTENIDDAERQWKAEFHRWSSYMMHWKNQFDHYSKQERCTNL

SMILES	Coping behavior to novel environment (% time in novel arm), trial-2 [1]	Curiosity behavior (total number of entries), trial-1 and trial-2 [1]	% known and novel arm entries (spatial recognition memory) [1]	IC50 [2, 4] [µg/mL]	IC50 [2, 5] [µg/mL]	Scopolamine-induced increase in acetylcholinesterase activity in HIP homogenate ([3]; listed as 3,8-(OH)2-DBP (A))	Scopolamine-induced increase in acetylcholinesterase activity in HIP homogenate [3]
O=c1oc2cc(O)ccc2c2ccc(O)cc12 [Urolithin A, 3,8-dihydroxy-dibenzo-alpha-pyrone]	attenuated the scopolamine-induced decrease in coping strategy	attenuated the scopolamine induced decrease in curiosity behavior	dose dependently reversed the % known and novel arm entries	0.1793 ± 0.0092	0.1793 ± 0.0092	attenuated the scopolamine induced increase acetylcholinesterase activity; also recorded: less effective than 3-OH-DBP (B) 50 mg/kg	
O=c1oc2cc(O)ccc2c2ccccc12 [Urolithin B, 3-hydroxy-dibenzo-alpha-pyrone]	attenuated the scopolamine-induced decrease in coping strategy	attenuated the scopolamine induced decrease in curiosity behavior	dose dependently reversed the % known and novel arm entries	0.1430 ± 0.0057	0.1430 ± 0.0057		attenuated the scopolamine induced increase acetylcholinesterase activity
